Assay results reported in EPA's ToxRefDB 2.

Tests used:
[1] = tested on: rabbit; conditions: Sub-acute dermal toxicity, new zealand white, Topical, dose end: 21 day, group: systemic, systemic / in life observation / clinical signs / erythema + systemic / pathology gross / skin / discolored + systemic / pathology gross / …
[2] = tested on: rat; conditions: Subchronic oral toxicity in rodents, other, Gavage/Intubation, dose end: 92 day, group: systemic, systemic / in life observation / clinical signs / respiration (rales) + systemic / in life observation / mortality / mortality + systemic / …
[3] = tested on: mouse; conditions: Carcinogenicity; cd1; Oral; Feed; dose end: 18 month; group: systemic; systemic / pathology microscopic / liver / vacuolization + systemic / pathology microscopic / seminal vesicle / distended + systemic / …
[4] = tested on: rat; conditions: Prenatal developmental toxicity study, other, Oral, Gavage/Intubation, dose end: 16 GD
[5] = tested on: rabbit; conditions: Prenatal developmental toxicity study, new zealand white, Oral, Gavage/Intubation, dose end: 19 GD
[6] = tested on: rat; conditions: Combined chronic toxicity/carcinogenicity, other, Oral, Feed, dose end: 24 month, group: systemic
[7] = tested on: rat; conditions: Multigenerational reproductive toxicity study, long evans, Oral, Gavage/Intubation, dose end: 1 generation
[8] = tested on: hamster; conditions: Multigenerational reproductive toxicity study, golden syrian, Oral, Gavage/Intubation, dose end: 1 generation
[9] = tested on: dog; conditions: Chronic toxicity; beagle; Oral; Feed; dose end: 52 week; group: systemic; systemic / clinical chemistry / cholesterol / cholesterol
[10] = tested on: rat; conditions: Sub-acute dermal toxicity, sprague dawley, Topical, dose end: 28 day, group: systemic
[11] = tested on: dog; conditions: Subchronic oral toxicity in nonrodent, beagle, Feed, dose end: 13 week, group: systemic
[12] = tested on: dog; conditions: Chronic toxicity; beagle; Oral; Feed; dose end: 24 month; group: systemic; systemic / clinical chemistry / alanine aminotransferase (alt/sgpt) / alanine aminotransferase (alt/sgpt) + systemic / clinical chemistry / …
[13] = tested on: rat; conditions: Prenatal developmental toxicity study, other, Oral, Gavage/Intubation, dose end: 16 GD; remark: listed apart in the source
[14] = tested on: rabbit; conditions: Prenatal developmental toxicity study, new zealand white, Oral, Capsule, dose end: 18 GD
[15] = tested on: dog; conditions: Chronic toxicity, beagle, Oral, Feed, dose end: 12 month, group: systemic
[16] = tested on: rat; conditions: Combined chronic toxicity/carcinogenicity; sprague dawley; Oral; Feed; dose end: 115 week; group: systemic; systemic / in life observation / body weight / body weight
[17] = tested on: mouse; conditions: Combined chronic toxicity/carcinogenicity, cd1, Oral, Feed, dose end: 89 week, group: systemic
[18] = tested on: rat; conditions: Multigenerational reproductive toxicity study, sprague dawley, Oral, Feed, dose end: 2 generation
[19] = group: developmental, developmental / developmental malformation / bone / short + developmental / developmental malformation / bone / supernumerary
[20] = group: developmental, developmental / developmental malformation / bone / short + developmental / developmental malformation / bone / supernumerary + …
[21] = group: maternal, systemic / in life observation / body weight / body weight gain + systemic / in life observation / food consumption / food consumption
[22] = group: maternal, systemic / in life observation / body weight / body weight gain + systemic / in life observation / food consumption / food consumption + …
[23] = group: developmental, developmental / developmental malformation / other / other
[24] = group: maternal, reproductive / reproductive performance / postimplantation loss / postimplantation loss + reproductive / reproductive performance / …
[25] = systemic / organ weight / brain / absolute + systemic / organ weight / brain / relative to body weight
[26] = group: parental, systemic / organ weight / epididymis / absolute + systemic / organ weight / testes / absolute + systemic / pathology gross / sperm measure…
[27] = group: parental, systemic / pathology gross / sperm measure / sperm count + systemic / pathology microscopic / testes / atrophy
[28] = group: reproductive, reproductive / reproductive performance / pregnancy / pregnancy + reproductive / reproductive performance / resorptions / resorptions + …
[29] = group: offspring, systemic / in life observation / body weight / offspring (pup) weight
[30] = group: parental, systemic / pathology gross / kidney / enlarged + systemic / pathology gross / liver / enlarged + systemic / pathology gross / sperm measure…
[31] = systemic / pathology microscopic / epididymis / hypospermia + systemic / pathology microscopic / testes / degeneration
[32] = systemic / pathology microscopic / epididymis / hypospermia + systemic / pathology microscopic / testes / degeneration + systemic / …
[33] = systemic / in life observation / food consumption / food consumption + systemic / clinical chemistry / cholesterol / cholesterol + systemic…
[34] = group: developmental, developmental / developmental malformation / bone / bipartite ossification + developmental / developmental malformation / bone / dumbbell …
[35] = group: maternal, systemic / organ weight / liver / absolute
[36] = group: developmental, developmental / developmental malformation / bone / irregular ossification
[37] = group: maternal, reproductive / reproductive performance / aborted / aborted + systemic / in life observation / clinical signs / ataxia
[38] = group: maternal, reproductive / reproductive performance / aborted / aborted + systemic / in life observation / clinical signs / ataxia + systemic / in life …
[39] = systemic / pathology microscopic / lung / [other] + systemic / in life observation / clinical signs / inappetence + systemic / in life …
[40] = systemic / in life observation / mortality / mortality
[41] = group: offspring, systemic / organ weight / liver / relative to body weight
[42] = group: parental, systemic / organ weight / kidney / relative to body weight

## O=C(CBr)c1ccc(O)cc1 [2-Bromo-4-hydroxyacetophenone]
[1]
  LEL: 20 mg/kg/day
  LOAEL: 20 mg/kg/day
  NEL: < 20 mg/kg/day
  NOAEL: < 20 mg/kg/day
[2]
  LEL: 30 mg/kg/day
  LOAEL: 30 mg/kg/day
  NEL: 6 mg/kg/day
  NOAEL: 6 mg/kg/day

## CCC(C)n1c(=O)[nH]c(C)c(Br)c1=O (stereo not given) [Bromacil]
[3]
  LEL: 36 mg/kg/day
  LOAEL: 36 mg/kg/day
  NEL: < 36 mg/kg/day
  NOAEL: < 36 mg/kg/day
[4]; [19]
  LEL: 200 mg/kg/day
  LOAEL: 200 mg/kg/day
[4]; [20]
  NEL: 75 mg/kg/day
  NOAEL: 75 mg/kg/day
[4]; [21]
  LEL: 75 mg/kg/day
  LOAEL: 75 mg/kg/day
[4]; [22]
  NEL: 20 mg/kg/day
  NOAEL: 20 mg/kg/day
[5]; [23]
  LEL: 500 mg/kg/day
  LOAEL: > 500 mg/kg/day
  NEL: 300 mg/kg/day
  NOAEL: ≥ 500 mg/kg/day
[5]; [24]
  LEL: 300 mg/kg/day
  LOAEL: 300 mg/kg/day
  NEL: 100 mg/kg/day
  NOAEL: 100 mg/kg/day
[6]; systemic / in life observation / body weight / body weight gain
  LOAEL: 9.82 mg/kg/day
[6]; systemic / in life observation / body weight / body weight gain + systemic / in life observation / body weight / body weight + systemic / …
  NOAEL: 1.96 mg/kg/day
[6]; [25]
  LEL: 1.96 mg/kg/day
  NEL: < 1.96 mg/kg/day

## COC(=O)Nc1nc2ccccc2[nH]1 [Carbendazim]
[7]; [26]
  LOAEL: > 400 mg/kg/day
  NOAEL: ≥ 400 mg/kg/day
[7]; [27]
  LEL: 50 mg/kg/day
  NEL: < 50 mg/kg/day
[7]; group: reproductive, reproductive / reproductive performance / pregnancy / pregnancy + reproductive / offspring survival early / litter viability other / litter …
  LEL: 200 mg/kg/day
[7]; group: reproductive, reproductive / reproductive performance / pregnancy / pregnancy + reproductive / reproductive performance / resorptions / resorptions
  NEL: 100 mg/kg/day
[7]; [28]
  LOAEL: > 400 mg/kg/day
  NOAEL: ≥ 400 mg/kg/day
[8]; [29]
  LEL: 400 mg/kg/day
  LOAEL: > 400 mg/kg/day
  NEL: < 400 mg/kg/day
  NOAEL: ≥ 400 mg/kg/day
[8]; [30]
  LEL: 400 mg/kg/day
  LOAEL: > 400 mg/kg/day
  NEL: < 400 mg/kg/day
  NOAEL: ≥ 400 mg/kg/day
[9]
  LEL: 16.5 mg/kg/day
  LOAEL: 16.5 mg/kg/day
  NEL: 6.43 mg/kg/day
  NOAEL: 6.43 mg/kg/day
[10]; [31]
  LEL: 120 mg/kg/day
  LOAEL: 120 mg/kg/day
[10]; [32]
  NEL: 20 mg/kg/day
  NOAEL: 20 mg/kg/day
[11]; systemic / clinical chemistry / cholesterol / cholesterol + systemic / pathology microscopic / liver / [other]
  LOAEL: 35 mg/kg/day
[11]; systemic / in life observation / food consumption / food consumption + systemic / clinical chemistry / cholesterol / cholesterol
  LEL: 11.3 mg/kg/day
[11]; [33]
  NEL: 2.7 mg/kg/day
  NOAEL: 11.3 mg/kg/day
[12]
  LEL: 12.5 mg/kg/day
  LOAEL: 12.5 mg/kg/day
  NEL: 2.5 mg/kg/day
  NOAEL: 2.5 mg/kg/day
[13]; [34]
  LEL: 20 mg/kg/day
  LOAEL: 20 mg/kg/day
  NEL: 10 mg/kg/day
  NOAEL: 10 mg/kg/day
[13]; [35]
  LOAEL: 90 mg/kg/day
  NEL: 20 mg/kg/day
  NOAEL: 20 mg/kg/day
[13]; group: maternal, systemic / organ weight / liver / absolute + reproductive / offspring survival early / live fetuses / live fetuses + reproductive / …
  LEL: 90 mg/kg/day

## COc1c(Cl)ccc(Cl)c1C(=O)O [Dicamba]
[14]; [36]
  LEL: 300 mg/kg/day
  LOAEL: 300 mg/kg/day
  NEL: 150 mg/kg/day
  NOAEL: 150 mg/kg/day
[14]; [37]
  LEL: 150 mg/kg/day
  LOAEL: 150 mg/kg/day
[14]; [38]
  NEL: 30 mg/kg/day
  NOAEL: 30 mg/kg/day
[15]; systemic / pathology microscopic / lung / [other]
  NEL: 2 mg/kg/day
[15]; systemic / pathology microscopic / lung / [other] + systemic / in life observation / clinical signs / inappetence
  LEL: 11 mg/kg/day
[15]; [39]
  LOAEL: > 52 mg/kg/day
  NOAEL: ≥ 52 mg/kg/day
[16]
  LEL: 125 mg/kg/day
  LOAEL: > 125 mg/kg/day
  NEL: 12.5 mg/kg/day
  NOAEL: ≥ 125 mg/kg/day
[17]; [40]
  LOAEL: 358 mg/kg/day
  NOAEL: 108 mg/kg/day
[17]; systemic / organ weight / kidney / nos
  LEL: 121 mg/kg/day
[17]; systemic / organ weight / kidney / nos + systemic / in life observation / body weight / body weight gain
  NEL: 18.8 mg/kg/day
[18]; [29]
  LOAEL: 122 mg/kg/day
[18]; group: offspring, systemic / in life observation / body weight / offspring (pup) weight + systemic / organ weight / liver / relative to body weight
  NOAEL: 40 mg/kg/day
[18]; [41]
  LEL: 40 mg/kg/day
  NEL: < 40 mg/kg/day
[18]; [42]
  LEL: 40 mg/kg/day
  NEL: < 40 mg/kg/day
[18]; group: parental, systemic / organ weight / liver / relative to body weight
  LOAEL: 419 mg/kg/day
[18]; group: parental, systemic / organ weight / liver / relative to body weight + systemic / in life observation / body weight / body weight + systemic / organ …
  NOAEL: 122 mg/kg/day
